Measurements from patent publication US20230089867A1, “CYCLIC PENTAMER COMPOUNDS AS PROPROTEIN CONVERTASE SUBTILISIN/KEXIN TYPE 9 (PCSK9) INHIBITORS FOR THE TREATMENT OF METABOLIC DISORDER” (Novartis AG, priority 2018, published 2023).

Molecular target: human PCSK9 (Homo sapiens, UniProt Q8NBP7)
Assay: PCSK9 ligand binding TR-FRET assay (interference with binding of human PCSK9 to human LDLR)
Details: for Max % inhibition: PCSK9 FRET assay, efficacy (Amax), 100% = 1 uM unlabeled human PCSK9, 0% = DMSO; for IC50: TR-FRET, human PCSK9 Alexa Fluor 647 / human LDLR extracellular domain-Europium Kryptate, read-out: PCSK9 FRET Assay IC50
In short: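 Threefold compound dilutions were pre-incubated 30 min with PCSK9, after which 4 nM Europium Kryptate-tagged human LDLR ectodomain was added for a further 2 h.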

Sequence of human PCSK9 (Q8NBP7 153-692): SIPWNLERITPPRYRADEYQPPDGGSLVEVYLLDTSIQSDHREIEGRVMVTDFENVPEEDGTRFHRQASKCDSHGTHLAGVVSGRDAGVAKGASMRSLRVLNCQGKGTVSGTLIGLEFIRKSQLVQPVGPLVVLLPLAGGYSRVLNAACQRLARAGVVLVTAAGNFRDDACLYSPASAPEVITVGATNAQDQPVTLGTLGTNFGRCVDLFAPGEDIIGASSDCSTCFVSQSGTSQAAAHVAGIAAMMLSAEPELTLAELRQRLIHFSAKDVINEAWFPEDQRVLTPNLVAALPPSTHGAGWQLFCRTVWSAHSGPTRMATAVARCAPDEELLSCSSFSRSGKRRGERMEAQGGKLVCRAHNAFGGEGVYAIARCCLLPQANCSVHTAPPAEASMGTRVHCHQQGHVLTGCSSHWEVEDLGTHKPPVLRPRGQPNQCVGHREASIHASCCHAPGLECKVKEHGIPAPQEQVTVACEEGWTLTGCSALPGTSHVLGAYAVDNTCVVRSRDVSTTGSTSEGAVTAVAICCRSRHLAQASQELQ
Sequence of human PCSK9 (Q8NBP7 31-152 partner limits assumed): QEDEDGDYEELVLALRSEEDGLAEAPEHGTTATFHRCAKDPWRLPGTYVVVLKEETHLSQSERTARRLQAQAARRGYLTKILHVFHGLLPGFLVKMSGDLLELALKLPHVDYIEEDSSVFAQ

COC[C@@H]1NC(=O)[C@H](CCCN2CCOCC2)N(Cc2ccc(Cl)cc2Oc2ccc(-c3cnc(CN4CCCC4)n3C)cc2)C(=O)C[C@@H](Cc2ccccc2)C(=O)N(C)[C@H]2CCCC[C@@H]2NC(=O)C[C@H](Cc2ccc(Cl)cc2)N(C)C1=O [Compound 252, (4S,7S,10S,14R,16aS,20aS)-14-benzyl-11-(4-chloro-2-(4-(1-methyl-2-(pyrrolidin-1-ylmethyl)-1H-imidazol-5-yl)phenoxy)benzyl)-4-(4-chlorobenzyl)-7-(methoxymethyl)-5,16-dimethyl-10-(3-morpholinopropyl)hexadecahydrobenzo[l][1,4,7,11,14]pentaazacyclooctadecine-2,6,9,12,15(3H)-pentaone]
Max % inhibition: 92.00%
IC50: 2.1 nM

CCC(O)c1ncc(-c2ccc(Oc3cc(Cl)ccc3CN3C(=O)C[C@@H](Cc4ccccc4)C(=O)N(C)[C@@H](C)CNC(=O)C[C@H](Cc4ccc(Cl)cc4)N(C)C(=O)[C@H](COC)NC(=O)[C@@H]3C)cc2)n1C (stereo partly drawn) [Compound 151, (2S,5S,8S,13S,16R)-16-benzyl-1-(4-chloro-2-(4-(2-(1-hydroxypropyl)-1-methyl-1H-imidazol-5-yl)phenoxy)benzyl)-8-(4-chlorobenzyl)-5-(methoxymethyl)-2,7,13,14-tetramethyl-1,4,7,11,14-pentaazacyclooctadecane-3,6,10,15,18-pentaone]
Max % inhibition: 64.23%
IC50: 8.8 nM

COC[C@@H]1NC(=O)[C@H](CCCNC(=O)OC(C)(C)C)N(Cc2ccc(Cl)cc2Oc2ccc(-c3cnc(CN(C)C)n3C)cc2)C(=O)C[C@@H](Cc2ccccc2)C(=O)N(C)[C@@H](C)CNC(=O)C[C@H](Cc2ccc(Cl)cc2)N(C)C1=O [Compound 4, tert-butyl (3-((2S,5S,8S,13S,16R)-16-benzyl-1-(4-chloro-2-(4-(2-((dimethylamino)methyl)-1-methyl-1H-imidazol-5-yl)phenoxy)benzyl)-8-(4-chlorobenzyl)-5-(methoxymethyl)-7,13,14-trimethyl-3,6,10,15,18-pentaoxo-1,4,7,11,14-pentaazacyclooctadecan-2-yl)propyl)carbamate]
Max % inhibition: 97.50%
IC50: 2.9 nM

COC[C@@H]1NC(=O)[C@@H](C)N(Cc2ccc(Cl)cc2Oc2ccc(-c3cnc(CN(C)C)n3C)cc2)C(=O)C[C@@H](Cc2ccccc2)C(=O)N(C)[C@H]2CCOC[C@@H]2NC(=O)C[C@H](Cc2ccc(Cl)cc2)N(C)C1=O [Compound 294, (4S,7S,10R,14R,16aS,20aR)-14-benzyl-11-(4-chloro-2-(4-(2-((dimethylamino)methyl)-1-methyl-1H-imidazol-5-yl)phenoxy)benzyl)-4-(4-chlorobenzyl)-7-(methoxymethyl)-5,10,16-trimethyltetradecahydro-1H-pyrano[3,4-l][1,4,7,11,14]pentaazacyclooctadecine-2,6,9,12,15(3H)-pentaone]
Max % inhibition: 55.44%
IC50: 105 nM

COC[C@@H]1NC(=O)[C@H](C)N(Cc2ccc(Cl)cc2Oc2ccc(-c3cnc(CN4CC[C@H](O)C4)n3C)cc2)C(=O)C[C@@H](Cc2ccccc2)C(=O)N(C)[C@@H](C)CNC(=O)C[C@H](Cc2ccc(Cl)cc2)N(C)C1=O [Compound 220, (2S,5S,8S,13S,16R)-16-benzyl-1-(4-chloro-2-(4-(2-(((S)-3-hydroxypyrrolidin-1-yl)methyl)-1-methyl-1H-imidazol-5-yl)phenoxy)benzyl)-8-(4-chlorobenzyl)-5-(methoxymethyl)-2,7,13,14-tetramethyl-1,4,7,11,14-pentaazacyclooctadecane-3,6,10,15,18-pentaone]
Max % inhibition: 94.82%
IC50: 2.1 nM

COC[C@@H]1NC(=O)[C@H](C)N(Cc2ccc(C)cc2Oc2ccc(-c3cnc(CN(C)C)n3C)cc2)C(=O)C[C@@H](Cc2ccccc2)C(=O)N(C)[C@@H](C)CNC(=O)C[C@H](Cc2ccc(Cl)cc2)N(C)C1=O [Compound 240, (2S,5S,8S,13S,16R)-16-benzyl-8-(4-chlorobenzyl)-1-(2-(4-(2-((dimethylamino)methyl)-1-methyl-1H-imidazol-5-yl)phenoxy)-4-methylbenzyl)-5-(methoxymethyl)-2,7,13,14-tetramethyl-1,4,7,11,14-pentaazacyclooctadecane-3,6,10,15,18-pentaone]
Max % inhibition: 99.28%
IC50: 0.9 nM

COC[C@@H]1NC(=O)[C@H](CO)N(Cc2ccc(Cl)cc2Oc2ccc(-c3cnc(CN(C)C)n3C)cc2)C(=O)C[C@@H](Cc2ccccc2)C(=O)N(C)[C@@H](C)CNC(=O)C[C@H](Cc2ccc(Cl)cc2)N(C)C1=O [Compound 11, (2S,5S,8S,13S,16R)-16-benzyl-1-(4-chloro-2-(4-(2-((dimethylamino)methyl)-1-methyl-1H-imidazol-5-yl)phenoxy)benzyl)-8-(4-chlorobenzyl)-2-(hydroxymethyl)-5-(methoxymethyl)-7,13,14-trimethyl-1,4,7,11,14-pentaazacyclooctadecane-3,6,10,15,18-pentaone]
Max % inhibition: 105.07%
IC50: 2.6 nM

COC[C@@H]1NC(=O)[C@H](CCC(=O)OC(C)(C)C)N(Cc2ccc(Cl)cc2Oc2ccc(-c3cnc(CN(C)C)n3C)cc2)C(=O)C[C@@H](Cc2ccccc2)C(=O)N(C)[C@H]2CCCC[C@@H]2NC(=O)C[C@H](Cc2ccc(Cl)cc2)N(C)C1=O [Compound 46, tert-butyl 3-((4S,7S,10S,14R,16aS,20aS)-14-benzyl-11-(4-chloro-2-(4-(2-((dimethylamino)methyl)-1-methyl-1H-imidazol-5-yl)phenoxy)benzyl)-4-(4-chlorobenzyl)-7-(methoxymethyl)-5,16-dimethyl-2,6,9,12,15-pentaoxodocosahydrobenzo[l][1,4,7,11,14]pentaazacyclooctadecin-10-yl]propanoate]
Max % inhibition: 96.56%
IC50: 2.7 nM

COC[C@@H]1NC(=O)[C@H](C)N(Cc2ccc(Cl)cc2Oc2ccc(-c3cnc(CN4CCCC4)n3C)cc2)C(=O)C[C@@H](Cc2ccccc2)C(=O)N(C)[C@@H]2CCOC[C@H]2NC(=O)C[C@H](Cc2ccc(Cl)cc2)N(C)C1=O [Compound 14, (4S,7S,10S,14R,16aR,20aS)-14-benzyl-11-(4-chloro-2-(4-(1-methyl-2-(pyrrolidin-1-ylmethyl)-1H-imidazol-5-yl)phenoxy)benzyl)-4-(4-chlorobenzyl)-7-(methoxymethyl)-5,10,16-trimethyltetradecahydro-1H-pyrano[3,4-l][1,4,7,11,14]pentaazacyclooctadecine-2,6,9,12,15(3H)-pentaone]
Max % inhibition: 93.84%
IC50: 307 nM

COC[C@@H]1NC(=O)[C@H](C)N(Cc2ccc(Cl)cc2Oc2ccc(-c3cnc(CN(C)C)n3C)cc2)C(=O)C[C@@H](C)C(=O)N(C)[C@@H](C)CNC(=O)C[C@H](Cc2ccc(Cl)cc2)N(C)C1=O [Compound 161, (2S,5S,8S,13S,16R)-1-(4-chloro-2-(4-(2-((dimethylamino)methyl)-1-methyl-1H-imidazol-5-yl)phenoxy)benzyl)-8-(4-chlorobenzyl)-5-(methoxymethyl)-2,7,13,14,16-pentamethyl-1,4,7,11,14-pentaazacyclooctadecane-3,6,10,15,18-pentaone]
Max % inhibition: 92.62%
IC50: 14.7 nM

CN(C)Cc1ncc(-c2ccc(Oc3cc(Cl)ccc3CN3C(=O)C[C@@H](Cc4ccccc4)C(=O)N(C)[C@H]4CCCC[C@@H]4NC(=O)C[C@H](Cc4ccc(Cl)cc4)N(C)C(=O)[C@H](CO)NC(=O)[C@H]3CCC(=O)OC(C)(C)C)cc2)n1C [Compound 287, tert-butyl 3-((4S,7S,10R,14R,16aS,20aS)-14-benzyl-11-(4-chloro-2-(4-(2-((dimethylamino)methyl)-1-methyl-1H-imidazol-5-yl)phenoxy)benzyl)-4-(4-chlorobenzyl)-7-(hydroxymethyl)-5,16-dimethyl-2,6,9,12,15-pentaoxodocosahydrobenzo[l][1,4,7,11,14]pentaazacyclooctadecin-10-yl)propanoate]
Max % inhibition: 89.28%
IC50: 2.6 nM

COC[C@@H]1NC(=O)[C@H](CC(=O)N(C)C)N(Cc2ccc(Cl)cc2Oc2ccc(-c3cnc(CN(C)C)n3C)cc2)C(=O)C[C@@H](Cc2ccccc2)C(=O)N(C)[C@H]2CCCC[C@@H]2NC(=O)C[C@H](Cc2ccc(Cl)cc2)N(C)C1=O [Compound 269, 2-((4S,7S,10S,14R,16aS,20aS)-14-benzyl-11-(4-chloro-2-(4-(2-((dimethylamino)methyl)-1-methyl-1H-imidazol-5-yl)phenoxy)benzyl)-4-(4-chlorobenzyl)-7-(methoxymethyl)-5,16-dimethyl-2,6,9,12,15-pentaoxodocosahydrobenzo[l][1,4,7,11,14]pentaazacyclooctadecin-10-yl)-N,N-dimethylacetamide]
Max % inhibition: 97.18%
IC50: 1.3 nM

COC[C@@H]1NC(=O)[C@H](C)N(Cc2ccc(Cl)cc2Oc2ccc(-c3cnc(CN(C)C)n3C)cc2)C(=O)C[C@@H](Cc2ccccc2)C(=O)N(C)C2(CC2)CNC(=O)C[C@H](Cc2ccc(Cl)cc2)N(C)C1=O [Compound 144, (6R,10S,13S,16S)-6-benzyl-9-(4-chloro-2-(4-(2-((dimethylamino)methyl)-1-methyl-1H-imidazol-5-yl)phenoxy)benzyl)-16-(4-chlorobenzyl)-13-(methoxymethyl)-4,10,15-trimethyl-4,9,12,15,19-pentaazaspiro[2.17]icosane-5,8,11,14,18-pentaone]
Max % inhibition: 100.34%
IC50: 7 nM

COC[C@@H]1NC(=O)[C@H](C)N(Cc2ccc(Cl)cc2Oc2ccc(-c3nnc4n3CCNC4)cc2)C(=O)C[C@@H](Cc2ccccc2)C(=O)N(C)[C@@H](C)CNC(=O)C[C@H](Cc2ccc(Cl)cc2)N(C)C1=O [Compound 114, (2S,5S,8S,13S,16R)-16-benzyl-1-(4-chloro-2-(4-(5,6,7,8-tetrahydro-[1,2,4]triazolo[4,3-a]pyrazin-3-yl)phenoxy)benzyl)-8-(4-chlorobenzyl)-5-(methoxymethyl)-2,7,13,14-tetramethyl-1,4,7,11,14-pentaazacyclooctadecane-3,6,10,15,18-pentaone]
Max % inhibition: 57.46%
IC50: 4.5 nM
